Reference: patent US10513518B2, “Inhibitors of the renal outer medullary potassium channel” (Merck Sharp & Dohme Corp., priority 2015, dated 2019)

Target: hROMK (hKir1.1) (Homo sapiens (Human), UniProt P48048)
Assay: Thallium Flux Assay (ROMK channel functional thallium flux assay, FLIPR-Tetra)
Assay type: cell-based
Conditions: HEK293 cells stably expressing hROMK (hKir1.1); 30 min incubation with test compound
Method: The following Thallium Flux Assay was performed on each of the final product compounds in the Examples.
HEK293 cells stably expressing hROMK (hKir1.1) were grown at 37° C. in a 10% CO2 humidified incubator in complete growth media: Dulbecco's Modified Eagle Medium supplemented with non-essential amino acids, Penicillin/Streptomycin/Glutamine, G418 and FBS. At >80% confluency, aspirate the media from the flask and rinse with 10 mL Calcium/Magnesium-free PBS. 5 mL of 1× trypsin (prepared in Ca/Mg Free PBS) was added to a T-225 flask and the flask was returned to the 37° C./CO2 incubator for 2-3 minutes. The cell was dislodged by genitly banging the side of the flask by hand. The cells were titrated completely and then the cells were transferred to 25 mL complete media. The cells were centrifuged at 1,500 rpm for 6 min followed by resuspension in complete growth media and cell concentration was determined. 4E6 cells/T-225 flask attained >80% confluency in 4 days. Under ideal growth conditions and appropriate tissue culture practices, this cell line was stable for 40-45 passages.
FluxOR Kit Components (Invitrogen F10017)
• FluxOR™ Reagent (Component A) • FluxOR™ Assay Buffer (Component B)—10× Concentrate • PowerLoad™ Concentrate (Component C)—100× Concentrate • Probenecid (Component D)—Lyophilized sample is kept at −20° C. Water soluble, 100× after solubilization in 1 mL water. Store at 4° C. • FluxOR™ Chloride-free Buffer (Component E)—5× Concentrate • Potassium sulfate (K2SO4) Concentrate (Component F)—125 mM in water. Store at 4° C. • Thallium sulfate (TI2SO4) Concentrate (Component G)—50 mM in water. Store at 4° C. • DMSO (dimethyl sulfoxide, Component H)—1 mL (100%) Reagent Preparation: FluxOR Working Solutions • 1000× FluxOR™ Reagent: Reconstitute a vial of component A in 100 μl DMSO; Mix well; Store 10 μl aliquots at −20° C. • 1× FluxOR™ Assay Buffer: Dilute Component B 10-fold with water; Adjust pH to 7.4 with Hepes/NaOH; Filter and store at 4° C. • Probenecid/Assay Buffer: 100 mL of 1× FluxOR™ Assay Buffer; 1 mL of reconstituted component D; Store at 4° C. • Loading Buffer (per microplate): 10 μl 1000× FluxOR™ Reagent; 100 μl component C; 10 mL Probenecid/Assay Buffer • Compound Buffer (per microplate): 20 mL Probenecid/Assay Buffer; 0.3 mM ouabain (10 mM ouabain in water can be stored in amber bottle/aluminum foil at room temperature); Test compound • 1× FluxOR™ Chloride-Free Buffer: Prepare 1× working solution in water. Can be stored at room temperature • Stimulant Buffer (prepared at 5× final concentration in 1× FluxOR™ Chloride-Free Buffer): 7.5 mM Thallium sulfate and 0.75 mM Potassium sulfate (to give a final assay concentration of 3 mM Thallium/0.3 mM Potassium). Store at 4° C. when not in use. If kept sterile, this solution is good for months. Assay Protocol—
The ROMK channel functional thallium flux assay was performed in 384 wells, using the FLIPR-Tetra instrument. HEK-hKir1.1 cells were seeded in Poly-D-Lysine microplates and kept in a 37° C.-10% CO2 incubator overnight. On the day of the experiment, the growth media was replaced with the FluxOR™ reagent loading buffer and incubated, protected from light, at ambient temperature (23-25° C.) for 90 min. The loading buffer was replaced with assay buffer±test compound followed by 30 min incubation at ambient temperature, where the Thallium/Potassium stimulant was added to the microplate.
1. Seed HEK-hKir1.1 cells (50 μl at 20,000 cells/well) in 384-well PDL coated Microplates
2. Allow cells to adhere overnight in humidified 37° C./10% CO2 incubator
3. Completely remove cell growth media from microplate and replace with 25 μl loading buffer
4. Incubate Microplate at room temperature, protected form light, for 90 min
5. Remove loading buffer and replace with 25 μl 1× Assay Buffer±test compound.
6. Incubate microplate at room temperature, protected from light, for 30 min
7. At FLIPR-Tetra 384: Add stimulant (Thallium/Potassium) solution to microplate and monitor fluorescence. […]

Sequence of hROMK (hKir1.1) (P48048 whole entry): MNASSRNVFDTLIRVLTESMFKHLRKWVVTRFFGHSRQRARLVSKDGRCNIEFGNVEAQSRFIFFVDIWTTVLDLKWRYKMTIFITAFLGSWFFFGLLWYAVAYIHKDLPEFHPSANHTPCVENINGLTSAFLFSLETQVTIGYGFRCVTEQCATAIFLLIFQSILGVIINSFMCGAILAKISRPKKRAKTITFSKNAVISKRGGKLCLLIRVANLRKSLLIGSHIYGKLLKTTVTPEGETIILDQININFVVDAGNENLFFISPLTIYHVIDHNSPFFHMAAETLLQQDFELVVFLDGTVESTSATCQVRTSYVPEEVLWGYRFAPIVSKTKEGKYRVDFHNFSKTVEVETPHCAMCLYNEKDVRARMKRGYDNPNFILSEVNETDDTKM

| Molecule | IC50 [nM] |
| --- | --- |
| 8(1R,3r,5S)-8-(2-hydroxy-2-(2-methyl-6-(1H-tetrazol-1-yl)60icycle60-3-yl)ethyl)-1′-(2-methyl-3-oxocyclopent-1-en-1-yl)-8-azaspiro[bicyclo[3.2.1]octane-3,3′-pyrrolidin]-2′-one [Example 5] | 49.1 |
| Cc1nc(-n2cnnn2)ccc1C(O)CN1CCC2(CC1)CCN(C1=CS(=O)(=O)CC1)C2=O (single isomer, unassigned) [Example 1, 2-(1,1-dioxido-4,5-dihydrothiophen-3-yl)-8-(2-hydroxy-2-(2-methyl-6-(1H-tetrazol-1-yl)pyridin-3-yl)ethyl)-2,8-diazaspiro[4.5]decan-1-one] | 640 |
| CC1=C(N2CCC3(CCCN(CC(O)c4ccc(-n5cnnn5)nc4C)CC3)C2=O)CCC1=O (single isomer, unassigned) [Example 3A, 8-(2-hydroxy-2-(2-methyl-6-(1H-tetrazol-1-yl)pyridin-3-yl)ethyl)-2-(2-methyl-3-oxocyclopent-1-en-1-yl)-2,8-diazaspiro[4.6]undecan-1-one] | 323 |
| CC1=C(N2CCC3(CCCN(CC(O)c4ccc(-n5cnnn5)nc4C)CC3)C2=O)CCC1=O (single isomer, unassigned) [Example 3B, 8-(2-hydroxy-2-(2-methyl-6-(1H-tetrazol-1-yl)pyridin-3-yl)ethyl)-2-(2-methyl-3-oxocyclopent-1-en-1-yl)-2,8-diazaspiro[4.6]undecan-1-one] | 86.3 |
| CC1=C(N2CCC3(CC4CCC(C3)N4CC(O)c3ccc(-n4cnnn4)cn3)C2=O)CCC1=O [Example 6, (1R,3r,5S)-8-(2-(5-(1H-tetrazol-1-yl)pyridin-2-yl)-2-hydroxyethyl)-1′-(2-methyl-3-oxocyclopent-1-en-1-yl)-8-azaspiro[bicyclo[3.2.1]octane-3,3′-pyrrolidin]-2′-one] | 294 |
| Cc1c([C@@H](O)CN2CCC3(CC2)CCN(C2=CC(=O)CC2)C3=O)ccc2c1COC2=O [Example 11] | 122 |
| Cc1c([C@@H](O)CN2CCC3(CC2)CC(=O)N(C2=CC(=O)CC2)C3)ccc2c1COC2=O [Example 12] | 521 |
| Cc1nc(-n2cnnn2)ccc1C(O)CN1CCC2(CC1)CC(=O)N(C1=CC(=O)CC1)C2 (centres unmarked) [Example 13] | 356 |
| Cc1nc(-n2cnnn2)ccc1C(O)CN1CCC2(CC1)CCN(C1=CC(=O)CC1)C2=O (centres unmarked) [Example 14] | 87 |
| Cc1nc(-n2cnnn2)ccc1C(O)CN1CCC2(CC1)CCN(C1=CS(=O)(=O)CC1)C2=O (centres unmarked) [Example 15] | 55.9 |
| Cc1c([C@@H](O)CN2CCC3(CC2)CCN(C2=CS(=O)(=O)CC2)C3=O)ccc2c1COC2=O [Example 16] | 276 |
| Cc1nc(-n2cnnn2)ccc1C(O)CN1CCC2(CC1)CC(=O)N(C1=CS(=O)(=O)CC1)C2 (centres unmarked) [Example 17] | 598 |
| CC1=C(N2CCC3(CCN(CC(O)c4ccc(-n5cnnn5)nc4C)CC3)C2=O)CCC1=O (centres unmarked) [Example 18] | 47.3 |
| CC1=C(N2CCC3(CCN(C[C@H](O)c4ccc5c(c4C)COC5=O)CC3)C2=O)CCC1=O [Example 19] | 62.2 |
| CC1=C(N2CC3(CCN(C[C@H](O)c4ccc5c(c4C)COC5=O)CC3)CC2=O)CCC1=O [Example 20] | 497 |
| CC1=C(N2CCC3(CCN(C[C@H](O)c4ccc(-n5cnnn5)nc4)CC3)C2=O)CCC1=O [Example 21] | 118 |
| O=C1N(C2=CS(=O)(=O)CC2)CCC12CCN(C[C@H](O)c1ccc(-n3cnnn3)nc1)CC2 [Example 22] | 114 |
| O=C1C=C(N2CCC3(CCN(C[C@H](O)c4ccc(-n5cnnn5)nc4)CC3)C2=O)CC1 [Example 23] | 187 |
| CC1=C(N2CCC3(CCN(CC(O)c4ncc(-n5cnnn5)cc4C)CC3)C2=O)CCC1=O (centres unmarked) [Example 24] | 386 |
| CC1=C(N2CCC3(CCN(CC(O)c4ncc(-n5cnnn5)cc4C)CC3)C2=O)CCC1=O (centres unmarked) [Example 25] | 347 |
| CC1=C(N2CCC3(CCN(CC(O)c4ccc(-n5cnnn5)cc4C)CC3)C2=O)CCC1=O (centres unmarked) [Example 26] | 87.1 |

| Molecule | IC50 [nM] |
| --- | --- |
| CC1=C(N2CCC3(CCN(CC(O)c4ccc(-n5cnnn5)cc4C)CC3)C2=O)CCC1=O (centres unmarked) [Example 27] | 74.5 |
| CC1=C(N2CCC3(CCN(CC(O)c4cnc(-n5cnnn5)c(F)c4)CC3)C2=O)CCC1=O (centres unmarked) [Example 28] | 295 |
| CC1=C(N2CCC3(CCN(CC(O)c4cnc(-n5cnnn5)c(F)c4)CC3)C2=O)CCC1=O (centres unmarked) [Example 29] | 674 |
| O=C1C=C(N2CCC3(CCN(CC(O)c4cnc(-n5cnnn5)c(F)c4)CC3)C2=O)CC1 (centres unmarked) [Example 30] | 415 |
| O=C1C=C(N2CCC3(CCN(CC(O)c4cnc(-n5cnnn5)c(F)c4)CC3)C2=O)CC1 (centres unmarked) [Example 31] | 751 |
| CC1=C(N2CCCC3(CCN(CC(O)c4ccc(-n5cnnn5)nc4C)CC3)C2=O)CCC1=O (centres unmarked) [Example 32] | 647 |
| Cc1nc(-n2cnnn2)ccc1C(O)CN1CCC2(CCCN(C3=CC(=O)CC3)C2=O)CC1 (centres unmarked) [Example 33] | 17.3 |
| Cc1c([C@@H](O)CN2CCC3(CCCN(C4=CC(=O)CC4)C3=O)CC2)ccc2c1COC2=O [Example 34] | 10.9 |
| Cc1cc(-n2cnnn2)ccc1C(O)CN1CCC2(CC1)CCN(C1=CC(=O)CC1)C2=O (centres unmarked) [Example 35] | 196 |
| CC1=C(N2CCC3(CCN(CC(O)c4ccc(-n5cnnn5)cc4F)CC3)C2=O)CCC1=O (centres unmarked) [Example 36] | 531 |
| O=C1C=C(N2CCC3(CCN(CC(O)c4ccc(-n5cnnn5)cc4F)CC3)C2=O)CC1 (centres unmarked) [Example 37] | 461 |
| Cc1nc(-n2cnnn2)ccc1C(O)CN1CCC2(CCCN(C3=CS(=O)(=O)CC3)C2=O)CC1 (centres unmarked) [Example 38] | 88.7 |
| CC1=C(N2CCC3(CCCN(C[C@H](O)c4ccc5c(c4C)COC5=O)CC3)C2=O)CCC1=O (some centres unmarked) [Example 39] | 15.1 |
| CC1=C(N2CCC3(CCCN(C[C@H](O)c4ccc5c(c4C)COC5=O)CC3)C2=O)CCC1=O (some centres unmarked) [Example 40] | 71.5 |
| Cc1cc(-n2cnnn2)ccc1C(O)CN1CCC2(CCCN(C3=CC(=O)CC3)C2=O)CC1 (centres unmarked) [Example 41] | 10.7 |
| O=C1C=C(N2CCCC3(CCN(CC(O)c4ccc(-n5cnnn5)cn4)CC3)C2=O)CC1 (centres unmarked) [Example 42] | 59.7 |
| CC1=C(N2CCC3(CCCN(CC(O)c4ccc(-n5cnnn5)nn4)CC3)C2=O)CCC1=O (centres unmarked) [Example 43] | 568 |
| CC1=C(N2CCC3(CCN(CC(O)c4ccc(-n5cnnn5)nn4)CC3)C2=O)CCC1=O (centres unmarked) [Example 44] | 100 |
| CC1=C(N2CCOC3(CCN(C[C@H](O)c4ccc5c(c4C)COC5=O)CC3)C2=O)CCC1=O [Example 45] | 892 |
| (1R,3R,5S)-8-((R)-2-hydroxy-2-(4-methyl-1-oxo-1,3-dihydroisobenzofuran-5-yl)ethyl)-1′-(2-methyl-3-oxocyclopent-1-en-1-yl)-8-azaspiro[bicyclo[3.2.1] octane-3,3′-pyrrolidin]-2′-one [Example 4] | 474 |
